In US20230264009A1, “DISINFECTING CAP KIT FOR LUER ACCESS DEVICES” (SterileCare Inc., priority 2022, published 2023):
Where a name gives a salt, the structure may show the parent alone.

Tests used:
S. epidermidis SK9 [1] = assay: Checkerboard titration, FMCI; type: cell-based, Staphylococcus epidermidis
Procedure: (§1) An assay was made using a minimum inhibitory concentration (MIC) and minimum bactericidal concentration (MBC) and minimum fungicidal concentration (MFC) determination. The MIC was determined by the micro broth dilution method in 96-well plates. Serial two-fold dilutions of tetrasodium EDTA (from 2% to 0.015%), ethanol (from 50% to 0.1%) and chlorhexidine HCl (from 100 µg/mL to 0.025 µg/mL) were prepared in MH broth with a final volume of 90 µL per well. A 10 µL containing 1 × 10^5 bacterial cells or 2 × 10^3 fungal cells were added to each well. The inoculated plates were covered with a lid, sealed with Parafilm, and incubated for 24 h at 37° C. with slight rocking on a tilting platform shaker. After incubation, the optical density at 600 nm (OD 600 ) of the cultures in each well was measured using an xMark™ Microplate Absorbance Spectrophotometer (Bio-Rad). […] MBCs and MFCs were determined by transferring 100 µL from each well with no apparent growth onto appropriate agar plates, followed by incubation for 24 h at 37° C.
(§2) A fourth composition and solution included tetrasodium EDTA with ethanol or chlorhexidine HCl. This fourth composition and solution were created using checkerboard titration methods using micro broth dilution in 96-well microtiter plates. The concentrations of antimicrobials used were based on previously determined MIC values. Briefly, 200 µL of two-fold dilutions of tetrasodium EDTA and ethanol or chlorhexidine HCl were prepared in MH or MH II broth with standardized cell suspension. […] Microtiter plates were incubated at 37° C. for 24 h, and the results were analyzed. Each test was performed in duplicate and included a growth control without adding any antimicrobials.

E. coli SK2 [2] = assay: Checkerboard titration, FMCI; type: cell-based, Escherichia coli; settings: tetrasodium EDTA + chlorhexidine HCl
Procedure: as §1, §2

MRSA ON184 [3] = assay: Checkerboard titration, FMCI; type: cell-based, Staphylococcus aureus
Procedure: as §1, §2

S. epidermidis SK9 [4] = assay: Checkerboard titration, FICI; type: cell-based, Staphylococcus epidermidis
Procedure: as §2

Candida albicans SK4b [5] = assay: Checkerboard titration, FMCI; type: cell-based; settings: C. albicans SK4b
Procedure: as §1, §2

[6] = system: Staphylococcus epidermidis ON170; assay: Checkerboard titration, FMCI; type: cell-based; settings: S. epidermidis ON170
Procedure: as §1, §2

[7] = system: Staphylococcus aureus ON89; assay: Checkerboard titration, FMCI; type: cell-based; settings: S. aureus ON89
Procedure: as §1, §2

Escherichia coli ON29 [8] = assay: Checkerboard titration, FMCI; type: cell-based; settings: tetrasodium EDTA + chlorhexidine HCl; E. coli ON29
Procedure: as §1, §2

Serratia marcescens SK2 [9] = assay: Checkerboard titration, FMCI; type: cell-based; settings: S. marcescens SK2
Procedure: as §1, §2

Proteus mirabilis ON153 [10] = assay: Checkerboard titration, FMCI; type: cell-based; settings: P. mirabilis ON153
Procedure: as §1, §2

[11] = system: Pseudomonas aeruginosa SK1; assay: Checkerboard titration, FMCI; type: cell-based; settings: tetrasodium EDTA + chlorhexidine HCl; P. aeruginosa SK1
Procedure: as §1, §2

[12] = system: Stenotrophomonas maltophilia ON17; assay: Checkerboard titration, FMCI; type: cell-based; settings: S. maltophilia ON17
Procedure: as §1, §2

MRSA ON184 [13] = assay: Checkerboard titration, FICI; type: cell-based, Staphylococcus aureus
Procedure: as §2

[14] = system: 48-h old biofilms of test organisms; assay: Rapid biofilm eradication, 2 h exposure; type: cell-based; settings: alone at the MBEC
Procedure: Determining rapid biofilm eradication by tetrasodium EDTA, ethanol, and chlorhexidine HCl alone and in combination was performed. After biofilm formation, control pegs (n = 6) were removed and analyzed to determine the starting biofilm cell numbers via the drop dilution method. The 48-h old biofilms on the pegs were exposed to different concentrations of test antimicrobials, dissolved in an appropriate growth medium, for two h to evaluate their efficacy alone and in combination. Antimicrobial solutions tested against each organism included each agent alone at the MBEC, double combinations at the FBEC, and triple combinations ranging from 5 to 20% ethanol, 2.5-5 µg/mL chlorhexidine HCl and 1- 3% tetrasodium EDTA. Following treatment, pegs were washed twice with sterile PBS, and the biofilm cells were dislodged into recovery medium and enumerated as described above.
The method for rapid biofilm eradication ability of test antimicrobials alone and in combination against 48-h-old biofilms within two h exposure time included (1) choosing different concentrations of test antimicrobials to assess their potency in eradicating preformed biofilms of study organisms within two h. Then (2) the quantitative recovery from biofilms following exposure to the antimicrobial solutions for bacterial strains (FIGS. 6A-6C) and fungal strains (FIG. 7) was evaluated.

C. albicans ON47 [15] = assay: Checkerboard titration, FICI; type: cell-based, Candida albicans
Procedure: as §2

Candida albicans SK4b [16] = assay: Checkerboard titration, FICI; type: cell-based; settings: C. albicans SK4b
Procedure: as §2

[17] = system: Staphylococcus epidermidis ON170; assay: Checkerboard titration, FICI; type: cell-based; settings: S. epidermidis ON170
Procedure: as §2

[18] = system: Staphylococcus aureus ON89; assay: Checkerboard titration, FICI; type: cell-based; settings: S. aureus ON89
Procedure: as §2

Escherichia coli ON29 [19] = assay: Checkerboard titration, FICI; type: cell-based; settings: tetrasodium EDTA + chlorhexidine HCl; E. coli ON29
Procedure: as §2

Serratia marcescens SK2 [20] = assay: Checkerboard titration, FICI; type: cell-based; settings: tetrasodium EDTA + chlorhexidine HCl; S. marcescens SK2
Procedure: as §2

Proteus mirabilis ON153 [21] = assay: Checkerboard titration, FICI; type: cell-based; settings: P. mirabilis ON153
Procedure: as §2

[22] = system: Pseudomonas aeruginosa SK1; assay: Checkerboard titration, FICI; type: cell-based; settings: tetrasodium EDTA + chlorhexidine HCl; P. aeruginosa SK1
Procedure: as §2

[23] = system: Stenotrophomonas maltophilia ON17; assay: Checkerboard titration, FICI; type: cell-based; settings: S. maltophilia ON17
Procedure: as §2

E. coli SK2 [24] = assay: Checkerboard titration, FICI; type: cell-based, Escherichia coli; settings: tetrasodium EDTA + chlorhexidine HCl
Procedure: as §2

[25] = system: 48-h-old biofilms of bacterial and fungal strains; assay: MBEC Assay, 24 h exposure (summary); type: cell-based; settings: following 24 h of treatment
Procedure: A biofilm cultivation cell composition was provided. This fifth composition was created using an MBEC Assay® biofilm inoculator, consisting of a polystyrene lid with 96 downward-protruding pegs and a corresponding base used to grow biofilms. A standardized inoculum was diluted in an appropriate biofilm growth medium to achieve a viable cell count of 1.5 × 10^6 CFU/mL of bacterial cells or […] CFU/mL of fungal cells. Then, 150 µL of this inoculum was transferred into each appropriate well, and the peg lids were inserted into the microtiter plates. The plates were sealed with Parafilm and were incubated at optimum temperature for 48 h with slight rocking for bacteria and shaking at 200 rpm for fungal strains. After incubation, the peg lid was removed from the base and rinsed twice with sterile phosphate-buffered saline (PBS) for 2 min to remove loosely attached non-sessile cells. Before the antimicrobial challenge, the pegs in column 1 (n = 8) were considered the biofilm growth control; these pegs were removed from the lids, placed into 200 µL of recovery medium, and analyzed for starting biofilm cell numbers as described below. […] After the antimicrobial challenge, the pegs were rinsed twice with sterile PBS for 2 min and placed into a new 96-well plate containing 200 µL of recovery medium. The recovery plates were sealed with Parafilm, and biofilm cells were dislodged from the pegs by sonication for 30 min with a Branson 3510 bath sonicator. The biofilm cells in the recovery medium were serially diluted, and a drop dilution assay was performed to enumerate the viable cells. MBEC values were determined as the minimum concentration of antimicrobials that yielded a viable cell count at or lower than the 125 CFU/mL detection limit.

C. albicans ON47 [26] = assay: Checkerboard titration, FMCI; type: cell-based, Candida albicans
Procedure: as §1, §2

[27] = system: Staphylococcus epidermidis SK9 biofilm; assay: FBEC index, checkerboard dilution on biofilms; type: cell-based; settings: tetrasodium EDTA + ethanol; S. epidermidis SK9 biofilm
Procedure: (§3) In step (4), microtiter plates are incubated at 37° C. for 24 h. then (6), after incubation, the bacterial and fungal cells were dislodged from the pegs into the recovery medium described above.
(§4) Three 10-µL aliquots, for a total of 30 µL from each well of recovery medium, were spotted on MH agar plates and incubated for 24 h at 37° C. […] The FBEC determination is a modification of the FICI.

[28] = system: Escherichia coli SK2 biofilm; assay: FBEC index, checkerboard dilution on biofilms; type: cell-based; settings: tetrasodium EDTA + ethanol; E. coli SK2 biofilm
Procedure: as §3, §4

C. albicans ON47 biofilm = assay: FBEC index, checkerboard dilution on biofilms; type: cell-based, Candida albicans; settings: tetrasodium EDTA + ethanol
Procedure: as §3, §4

MRSA ON184 biofilm = assay: FBEC index, checkerboard dilution on biofilms; type: cell-based, Staphylococcus aureus; settings: tetrasodium EDTA + ethanol
Procedure: as §3, §4

[29] = system: Staphylococcus aureus ON89 biofilm; assay: FBEC index, checkerboard dilution on biofilms; type: cell-based; settings: tetrasodium EDTA + ethanol; S. aureus ON89 biofilm
Procedure: as §3, §4

[30] = system: Candida albicans SK4b biofilm; assay: FBEC index, checkerboard dilution on biofilms; type: cell-based; settings: tetrasodium EDTA + ethanol; C. albicans SK4b biofilm
Procedure: as §3, §4

[31] = tetrasodium EDTA + chlorhexidine HCl

For [H]/N=C(\N/C(=N/[H])NCCCCCCNC(=N)NC(=N)Nc1ccc(Cl)cc1)Nc1ccc(Cl)cc1 [Chlorhexidine HCl, chlorhexidine HCl], the “Concentration in combination giving FMCI” value (S. epidermidis SK9 [1]; [31]) was 0.4 µg/mL, the “Concentration in combination giving FMCI” value (E. coli SK2 [2]) was 0.2 µg/mL and the “Concentration in combination giving FMCI” value (MRSA ON184 [3]; [31]) was 0.4 µg/mL. The “Concentration in combination giving FICI” value (S. epidermidis SK9 [4]; [31]) was 0.025 µg/mL, the “Concentration in combination giving FMCI” value (Candida albicans SK4b [5]; [31]) was 0.8 µg/mL and the “Concentration in combination giving FMCI” value [6, 31] was 0.4 µg/mL. For the same compound, the “Concentration in combination giving FMCI” value [7, 31] was 0.2 µg/mL, the “Concentration in combination giving FMCI” value (Escherichia coli ON29 [8]) was 0.2 µg/mL and the “Concentration in combination giving FMCI” value (Serratia marcescens SK2 [9]; [31]) was 1.6 µg/mL. For the same compound, the “Concentration in combination giving FMCI” value (Proteus mirabilis ON153 [10]; [31]) was 1.6 µg/mL, the “Concentration in combination giving FMCI” value [11] was 1.6 µg/mL and the “Concentration in combination giving FMCI” value [12, 31] was 0.4 µg/mL. The “Concentration in combination giving FICI” value (MRSA ON184 [13]; [31]) was 0.2 µg/mL, the “Eradication of preformed biofilms” value [14] was “failed to eradicate” and the “Concentration in combination giving FICI” value (C. albicans ON47 [15]; [31]) was 0.8 µg/mL. For the same compound, the “Concentration in combination giving FICI” value (Candida albicans SK4b [16]; [31]) was 0.8 µg/mL, the “Concentration in combination giving FICI” value [17, 31] was 0.05 µg/mL and the “Concentration in combination giving FICI” value [18, 31] was 0.1 µg/mL. For the same compound, the “Concentration in combination giving FICI” value (Escherichia coli ON29 [19]) was 0.2 µg/mL, the “Concentration in combination giving FICI” value (Serratia marcescens SK2 [20]) was 1.5 µg/mL and the “Concentration in combination giving FICI” value (Proteus mirabilis ON153 [21]; [31]) was 0.8 µg/mL. The “Concentration in combination giving FICI” value [22] was 0.8 µg/mL, the “Concentration in combination giving FICI” value [23, 31] was 0.2 µg/mL and the “Concentration in combination giving FICI” value (E. coli SK2 [24]) was 0.1 µg/mL. For the same compound, the “Concentration alone able to eradicate all established biofilms” value [25] was 100 µg/mL and the “Concentration in combination giving FMCI” value (C. albicans ON47 [26]; [31]) was 1.6 µg/mL.

For CCO [Ethanol, ethanol], the “Concentration in combination giving FMCI” value (S. epidermidis SK9 [1]; tetrasodium EDTA + ethanol) was 3.125 % w/v, the “FBEC (concentration in combination)” value [27] was 1.6 % w/v and the “FBEC (concentration in combination)” value [28] was 1.6 % w/v. The “Concentration in combination giving FMCI” value (MRSA ON184 [3]; tetrasodium EDTA + ethanol) was 3.125 % w/v, the “FBEC (concentration in combination)” value (C. albicans ON47 biofilm) was 1.6 % w/v and the “Concentration in combination giving FICI” value (S. epidermidis SK9 [4]; tetrasodium EDTA + ethanol) was 0.4 % w/v. The “Concentration in combination giving FMCI” value (Candida albicans SK4b [5]; tetrasodium EDTA + ethanol) was 3.125 % w/v, the “Concentration in combination giving FMCI” value ([6]; tetrasodium EDTA + ethanol) was 1.6 % w/v and the “Concentration in combination giving FMCI” value ([7]; tetrasodium EDTA + ethanol) was 3.125 % w/v. For the same compound, the “Concentration in combination giving FMCI” value (Serratia marcescens SK2 [9]; tetrasodium EDTA + ethanol) was 6.25 % w/v, the “Concentration in combination giving FMCI” value (Proteus mirabilis ON153 [10]; tetrasodium EDTA + ethanol) was 6.25 % w/v and the “Concentration in combination giving FMCI” value ([12]; tetrasodium EDTA + ethanol) was 1.6 % w/v. For the same compound, the “FBEC (concentration in combination)” value (MRSA ON184 biofilm) was 1.6 % w/v, the “Concentration in combination giving FICI” value (MRSA ON184 [13]; tetrasodium EDTA + ethanol) was 0.4 % w/v and the “Eradication of preformed biofilms” value [14] was “failed to eradicate”. The “FBEC (concentration in combination)” value [29] was 0.8 % w/v, the “Concentration in combination giving FICI” value (C. albicans ON47 [15]; tetrasodium EDTA + ethanol) was 0.4 % w/v and the “FBEC (concentration in combination)” value [30] was 1.6 % w/v. For the same compound, the “Concentration in combination giving FICI” value (Candida albicans SK4b [16]; tetrasodium EDTA + ethanol) was 1.6 % w/v, the “Concentration in combination giving FICI” value ([17]; tetrasodium EDTA + ethanol) was 0.4 % w/v and the “Concentration in combination giving FICI” value ([18]; tetrasodium EDTA + ethanol) was 0.4 % w/v. The “Concentration in combination giving FICI” value (Proteus mirabilis ON153 [21]; tetrasodium EDTA + ethanol) was 1.6 % w/v, the “Concentration in combination giving FICI” value ([23]; tetrasodium EDTA + ethanol) was 0.4 % w/v and the “Concentration alone able to eradicate all established biofilms” value [25] was 5%. The “Concentration in combination giving FMCI” value (C. albicans ON47 [26]; tetrasodium EDTA + ethanol) was 3.125 % w/v.
